Test results from patent publication US20080171783A1, “COMPOSITIONS AND METHODS FOR TREATING HYPERPROLIFERATIVE DISEASE” (Migenix Inc., priority 2006, published 2008).
pIC50: −log10 of the molar value.

Legend:
human polymerase alpha = molecular target: T1, human polymerase alpha (Homo sapiens, UniProt P09884); experiment: Homotemplate enzymatic assay, polymerase alpha; type: biochemical; conditions: four concentrations, homotemplate format
T1 construct: purchased Replizyme Ltd (Heslington, York, UK)
T1 sequence (P09884 1-1462): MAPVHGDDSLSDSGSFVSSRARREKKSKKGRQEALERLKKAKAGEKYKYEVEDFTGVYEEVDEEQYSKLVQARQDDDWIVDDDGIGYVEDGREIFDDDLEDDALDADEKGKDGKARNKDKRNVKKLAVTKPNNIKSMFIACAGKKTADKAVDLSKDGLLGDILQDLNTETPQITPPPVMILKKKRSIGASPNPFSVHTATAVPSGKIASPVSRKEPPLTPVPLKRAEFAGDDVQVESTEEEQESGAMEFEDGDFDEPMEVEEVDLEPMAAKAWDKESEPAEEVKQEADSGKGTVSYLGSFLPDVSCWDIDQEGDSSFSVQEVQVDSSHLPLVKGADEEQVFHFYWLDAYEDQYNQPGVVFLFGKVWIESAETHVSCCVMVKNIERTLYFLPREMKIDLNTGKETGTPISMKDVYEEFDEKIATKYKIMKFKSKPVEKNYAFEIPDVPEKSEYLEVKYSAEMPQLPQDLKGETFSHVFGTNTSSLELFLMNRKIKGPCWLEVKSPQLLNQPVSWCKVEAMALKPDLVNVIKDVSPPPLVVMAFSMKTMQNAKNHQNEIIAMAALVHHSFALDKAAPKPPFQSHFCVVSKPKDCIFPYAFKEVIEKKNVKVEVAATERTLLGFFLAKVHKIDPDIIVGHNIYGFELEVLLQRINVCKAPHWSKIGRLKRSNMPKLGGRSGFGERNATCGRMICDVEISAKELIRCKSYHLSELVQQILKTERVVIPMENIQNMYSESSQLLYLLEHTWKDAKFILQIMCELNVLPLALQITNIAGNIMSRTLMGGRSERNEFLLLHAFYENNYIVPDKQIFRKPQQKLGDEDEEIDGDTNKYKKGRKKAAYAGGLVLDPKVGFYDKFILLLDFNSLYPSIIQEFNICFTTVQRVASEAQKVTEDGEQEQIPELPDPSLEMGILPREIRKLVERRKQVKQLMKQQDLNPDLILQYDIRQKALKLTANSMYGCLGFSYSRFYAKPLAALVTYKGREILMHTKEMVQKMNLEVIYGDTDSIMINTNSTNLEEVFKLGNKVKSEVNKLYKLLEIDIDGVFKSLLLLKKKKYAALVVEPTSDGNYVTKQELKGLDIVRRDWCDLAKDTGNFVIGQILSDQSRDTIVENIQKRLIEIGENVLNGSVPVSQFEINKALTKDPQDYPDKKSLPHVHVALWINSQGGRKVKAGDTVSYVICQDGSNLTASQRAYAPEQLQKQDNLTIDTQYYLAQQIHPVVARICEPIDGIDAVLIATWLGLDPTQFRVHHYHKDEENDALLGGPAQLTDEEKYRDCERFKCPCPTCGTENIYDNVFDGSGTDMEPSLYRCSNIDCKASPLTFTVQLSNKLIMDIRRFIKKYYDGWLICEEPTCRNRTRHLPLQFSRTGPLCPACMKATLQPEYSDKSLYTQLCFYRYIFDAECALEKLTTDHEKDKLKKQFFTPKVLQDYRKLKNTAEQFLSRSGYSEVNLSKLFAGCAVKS
Protocol: To test for selectivity, an enzymatic assay of activity in human polymerase alpha and human polymerase gamma was performed using a homotemplate assay format (Replizyme Ltd., Heslington, York, UK). The IC50 was measured by testing four different concentrations of a selected compound as compared to an untreated control.

[1] = Cytotoxicity Huh-7 cells (MTS/PMS); type: cell-based; conditions: human, 3-day incubation
Protocol: Cytotoxicity of compounds for use in treating hyperproliferative diseases or disorders was tested in Huh-7 cells using tetrazolium salt MTS combined with the electron acceptor PMS in a 96-well format. Six doses of each compound was tested, starting at about 1.2 μM to 0.4 μM serially diluted in a final 1% DMSO solution in DMEM/F12 media. Terfenadine was used as a positive control. Cells were seeded at 2.5×10^5 cells/mL in each well of the 96-well plates in a final volume of 0.1 mL, and then incubated at 37° C. in the presence of 5% CO2 overnight. Compounds (in media) were added the following day and the treated cells were incubated another 3-days at 37° C. in the presence of 5% CO2. After the 3-day incubation, 20 μL of MTS/PMS (3-(4,5-dimethylthiazol-2-yl)-5-(3-carboxymethoxy-phenyl)-2-(4-sulfophenyl)-2H-tetrazolium) was added to each well. After about a one to four hour incubation of MTS/PMS at 37° C. and 5% CO2—that is, until an OD490 absorbance of ≧0.6 for the wells containing cells with media only, the level of cytotoxicity at each concentration was calculated. […] Dose response results from the cytotoxicity assay (CC50) are provided in Table 4 in comparison with IC50 data (from Table 2)

HL-60(TB) = experiment: NCI In Vitro Cell Line Screening (SRB); type: cell-based, human; conditions: Leukemia, 48 h; for GI50: Homo sapiens
BT-549 = experiment: NCI In Vitro Cell Line Screening (SRB); type: cell-based, human; conditions: BT-549, Breast Cancer, 48 h; for GI50 / CC50: Homo sapiens; for CC50: read-out: LC50 (the source's name)
SK-MEL-28 = experiment: NCI In Vitro Cell Line Screening (SRB); type: cell-based, human; conditions: SK-MEL-28, Melanoma, 48 h; for GI50 / CC50: Homo sapiens; for CC50: read-out: LC50 (the source's name)
CCRF-CEM = experiment: NCI In Vitro Cell Line Screening (SRB); type: cell-based, human; conditions: Leukemia, 48 h; for GI50 / CC50: Homo sapiens; for CC50: read-out: LC50 (the source's name)
MCF7 = experiment: NCI In Vitro Cell Line Screening (SRB); type: cell-based, human; conditions: MCF7, Breast Cancer, 48 h; for GI50 / CC50: Homo sapiens; for CC50: read-out: LC50 (the source's name)
MDA-MB-435 = experiment: NCI In Vitro Cell Line Screening (SRB); type: cell-based, human; conditions: MDA-MB-435, Breast Cancer, 48 h; for GI50 / CC50: Homo sapiens; for CC50: read-out: LC50 (the source's name)
DU-145 = experiment: NCI In Vitro Cell Line Screening (SRB); type: cell-based, human; conditions: DU-145, Prostate Cancer, 48 h; for GI50 / CC50: Homo sapiens; for CC50: read-out: LC50 (the source's name)
RPMI-8226 = experiment: NCI In Vitro Cell Line Screening (SRB); type: cell-based, human; conditions: RPMI-8226, Leukemia, 48 h

SMILES	pIC50 (human polymerase alpha)	CC50 at 3 days [1]	GI50 (HL-60(TB))	TGI (HL-60(TB))	TGI (BT-549)	GI50 (BT-549)	CC50 (BT-549)	GI50 (SK-MEL-28)	CC50 (SK-MEL-28)	TGI (SK-MEL-28)	GI50 (CCRF-CEM)	CC50 (CCRF-CEM)	TGI (CCRF-CEM)	GI50 (MCF7)	CC50 (MCF7)	TGI (MCF7)	GI50 (MDA-MB-435)	CC50 (MDA-MB-435)	TGI (MDA-MB-435)	TGI (DU-145)	further results
Cc1ccc(NC(=O)[C@H](CCCCN)NC(=O)Nc2ccc(OCc3ccccc3)cc2)cc1 [Compound 2, (S)-6-AMINO-2-[3-(4-BENZYLOXY-PHENYL)-UREIDO]-HEXANOIC ACID P-TOLYLAMIDE]	> 5.40	22.2 µM	–	–	–	–	–	–	–	–	–	–	–	–	–	–	–	–	–	–	–
CC(C)(C)c1ccc(NC(=O)[C@H](CCCCN)NC(=O)OCC2c3ccccc3-c3ccccc32)cc1 [Compound 105, (S)-[5-AMINO-1-(4-TERT-BUTYL-PHENYLCARBAMOYL)-PENTYL]-CARBAMIC ACID 9H-FLUOREN-9-YLMETHYL ESTER]	–	–	1.54 µM	3.47 µM	50.6 µM	25.3 µM	> 100 µM	12.3 µM	50.2 µM	24.8 µM	1.69 µM	6.47 µM	3.31 µM	0.546 µM	4.75 µM	1.91 µM	4.27 µM	87.1 µM	21.7 µM	31.2 µM	GI50 (DU-145): 15.8 µM; CC50 (DU-145): 61.6 µM; GI50 (RPMI-8226; Homo sapiens): 1.71 µM; TGI (RPMI-8226): 3.78 µM
Cc1ccc(NC(=O)[C@@H](CCCCN)NC(=O)Nc2ccc3c(c2)Cc2ccccc2-3)cc1 [Compound 173, (R)-6-AMINO-2-[3-(9H-FLUOREN-2-YL)-UREIDO]-HEXANOIC ACID P-TOLYLAMIDE]	> 5.40	–	1.77 µM	3.79 µM	26.9 µM	11.7 µM	61.6 µM	1.43 µM	5.43 µM	2.79 µM	1.97 µM	> 100 µM	5.15 µM	1.45 µM	5.29 µM	2.77 µM	1.98 µM	24.3 µM	6.21 µM	20.0 µM	GI50 (DU-145): 6.94 µM; CC50 (DU-145): 46.3 µM; GI50 (RPMI-8226; Homo sapiens): 1.59 µM; CC50 (RPMI-8226; Homo sapiens, read-out: LC50 (the source's name)): > 100 µM; TGI (RPMI-8226): 4.87 µM
COC(=O)c1ccc(COc2ccc(NC(=O)N[C@@H](CCCCN)C(=O)Nc3ccc(C)cc3)cc2)cc1 [Compound 199, (S)-4-{4-[3-(5-AMINO-1-P-TOLYLCARBAMOYL-PENTYL)-UREIDO]-PHENOXYMETHYL}-BENZOIC ACID METHYL ESTER]	~5.40	53 µM	–	–	–	–	–	–	–	–	–	–	–	–	–	–	–	–	–	–	–
Cc1cc2cc(NC(=O)[C@H](CCCNC(=O)CN)NC(=O)Nc3ccc4c(c3)Cc3ccccc3-4)ccc2[nH]1 [Compound 297, (S)-5-(2-AMINO-ACETYLAMINO)-2-[3-(9H-FLUOREN-2-YL)-UREIDO]-PENTANOIC ACID (2-METHYL-1H-INDOL-5-YL)-AMIDE]	> 5.40	9.9 µM	–	–	–	–	–	–	–	–	–	–	–	–	–	–	–	–	–	–	–
